# Results taken from patent US12655116B2, “Substituted isophthalic acid diamides” (Bayer Aktiengesellschaft, priority 2020, dated 2026).
# Experiments:
# ABUTH [1] = assay: Pre-emergence herbicidal action against ABUTH; type: in vivo, Abutilon theophrasti
# How it was run: (§1)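 Visual rating at 3 weeks vs untreated pots; 0–100% scale, 100% = plants died. Treatment: aqueous WP/EC spray onto covering soil, 600–800 l/ha, 0.2% wetter, seeds in sandy loam.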
# ALOMY [2] = assay: Pre-emergence herbicidal action against ALOMY; type: in vivo, Alopecurus myosuroides
# How it was run: as §1
# AMARE [3] = assay: Pre-emergence herbicidal action against AMARE; type: in vivo, Amaranthus retroflexus
# How it was run: as §1
# AVEFA = assay: Pre-emergence herbicidal action against AVEFA; type: in vivo, Avena fatua
# How it was run: as §1
# ECHCG [4] = assay: Pre-emergence herbicidal action against ECHCG; type: in vivo, Echinochloa crus-galli; conditions: 80 g/ha
# How it was run: as §1
# MATIN [5] = assay: Pre-emergence herbicidal action against MATIN; type: in vivo, Matricaria inodora
# How it was run: as §1
# PHBPU [6] = assay: Pre-emergence herbicidal action against PHBPU; type: in vivo, Pharbitis purpurea; conditions: dosage 80 g/ha
# How it was run: as §1
# POLCO = assay: Pre-emergence herbicidal action against POLCO; type: in vivo, Polygonum convolvulus
# How it was run: as §1
# SETVI [7] = assay: Pre-emergence herbicidal action against SETVI; type: in vivo, Setaria viridis
# How it was run: as §1
# VERPE [8] = assay: Pre-emergence herbicidal action against VERPE; type: in vivo, Veronica persica
# How it was run: as §1
# VIOTR [9] = assay: Pre-emergence herbicidal action against VIOTR; type: in vivo, Viola tricolor
# How it was run: as §1
# ABUTH [10] = assay: Post-emergence herbicidal action against ABUTH; type: in vivo, Abutilon theophrasti; conditions: visual assessment about 3 weeks after treatment vs untreated controls
# How it was run: (§2)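 Weeds in sandy loam soil received a post-emergence spray at the one-leaf stage. Compounds were applied as WP or EC in water, 600 to 800 l/ha, with 0.2% wetting agent. Activity in % was judged visually after roughly 3 weeks against untreated plants.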
# ALOMY [11] = assay: Post-emergence herbicidal action against ALOMY; type: in vivo, Alopecurus myosuroides; conditions: dosage 20 g/ha, visual assessment about 3 weeks after treatment vs untreated controls
# How it was run: as §2
# AMARE [12] = assay: Post-emergence herbicidal action against AMARE; type: in vivo, Amaranthus retroflexus; conditions: 20 g/ha, visual assessment about 3 weeks after treatment, 100% = plants have died, 0% = like control plants
# How it was run: as §2
# MATIN [13] = assay: Post-emergence herbicidal action against MATIN; type: in vivo, Matricaria inodora; conditions: dosage 20 g/ha
# How it was run: as §2
# SETVI [14] = assay: Post-emergence herbicidal action against SETVI; type: in vivo, Setaria viridis
# How it was run: as §2
# VERPE [15] = assay: Post-emergence herbicidal action against VERPE; type: in vivo, Veronica persica
# How it was run: as §2
# VIOTR [16] = assay: Post-emergence herbicidal action against VIOTR; type: in vivo, Viola tricolor
# How it was run: as §2
# ECHCG [17] = assay: Post-emergence herbicidal action against ECHCG; type: in vivo, Echinochloa crus-galli
# How it was run: as §2
# PHBPU [18] = assay: Post-emergence herbicidal action against PHBPU; type: in vivo, Pharbitis purpurea
# How it was run: as §2
# [19] = Setaria viridis, 504 h, dosage 20 g/ha
# [20] = 80 g/ha, scored visually after 3 weeks vs untreated controls (100% = plants have died, 0% = like control plants)
# [21] = 20 g/ha, scored visually after 3 weeks, 100% = plants have died, 0% = like control plants
structure (smiles),measurement,setting,value
CSc1c(C(=O)Nc2nnnn2C)ccc(C(F)F)c1C(=O)NC1CC1 [Example 1-89],pest or weed control at 80 g/ha,"ABUTH [1]; Abutilon theophrasti, 504 h, 80 g/ha, scored visually after 3 weeks vs untreated controls (100% = plants have died, 0% = like control plants)",100%
same,pest or weed control at 20 g/ha,"ABUTH [1]; Abutilon theophrasti, 504 h, dosage 20 g/ha, scored visually after 3 weeks vs untreated controls, 100% = plants have died, 0% = like control plants, read-out: Pre-emergence action against ABUTH (herbicidal activity in percent)",90%
same,pest or weed control at 80 g/ha,"ALOMY [2]; Alopecurus myosuroides, 504 h, 80 g/ha, pre-emergence, scored visually after 3 weeks vs untreated controls (100% = plants have died, 0% = like control plants)",90%
same,pest or weed control at 20 g/ha,"AMARE [3]; Amaranthus retroflexus, 504 h, 20 g/ha, scored visually after 3 weeks vs untreated controls, 100% = plants have died, 0% = like control plants",100%
same,pest or weed control at 80 g/ha,"AMARE [3]; Amaranthus retroflexus, 504 h, 80 g/ha, scored visually after 3 weeks vs untreated controls, 100% = plants have died, 0% = like control plants",100%
same,pest or weed control at 80 g/ha,"AVEFA; Avena fatua, 504 h, 80 g/ha, pre-emergence",90%
same,pest or weed control at 80 g/ha,"ECHCG [4]; Echinochloa crus-galli, 504 h",100%
same,pest or weed control at 20 g/ha,"MATIN [5]; Tripleurospermum inodorum, 504 h, dosage 20 g/ha",90%
same,pest or weed control at 80 g/ha,"MATIN [5]; Tripleurospermum inodorum, 504 h, dosage 80 g/ha",100%
same,pest or weed control at 80 g/ha,"PHBPU [6]; Ipomoea purpurea, 504 h",80%
same,pest or weed control at 80 g/ha,"POLCO; Fallopia convolvulus, 504 h, dosage 80 g/ha",80%
same,pest or weed control at 20 g/ha,SETVI [7]; [19],90%
same,pest or weed control at 80 g/ha,"SETVI [7]; Setaria viridis, 504 h, dosage 80 g/ha",100%
same,pest or weed control at 80 g/ha,"VERPE [8]; Veronica persica, 504 h, dosage 80 g/ha",90%
same,pest or weed control at 80 g/ha,"VIOTR [9]; Viola tricolor, 504 h, dosage 80 g/ha",100%
same,pest or weed control at 5 g/ha,"ABUTH [10]; Abutilon theophrasti, 504 h, dosage 5 g/ha",90%
same,pest or weed control at 20 g/ha,"ABUTH [10]; Abutilon theophrasti, 504 h, dosage 20 g/ha",90%
same,pest or weed control at 20 g/ha,"ALOMY [11]; Alopecurus myosuroides, 504 h",90%
same,pest or weed control at 20 g/ha,"AMARE [12]; Amaranthus retroflexus, 504 h",100%
same,pest or weed control at 20 g/ha,"MATIN [13]; Tripleurospermum inodorum, 504 h",80%
same,pest or weed control at 5 g/ha,"SETVI [14]; Setaria viridis, 504 h, dosage 5 g/ha",90%
same,pest or weed control at 20 g/ha,SETVI [14]; [19],90%
same,pest or weed control at 5 g/ha,"VERPE [15]; Veronica persica, 504 h, 5 g/ha",90%
same,pest or weed control at 20 g/ha,"VERPE [15]; Veronica persica, 504 h, 20 g/ha",90%
same,pest or weed control at 5 g/ha,"VIOTR [16]; Viola tricolor, 504 h, 5 g/ha",90%
same,pest or weed control at 20 g/ha,"VIOTR [16]; Viola tricolor, 504 h, 20 g/ha",90%
CCc1c(C(=O)Nc2nnnn2C)ccc(C(F)(F)F)c1C(=O)NCC1CC1 [Example 1-274],Pre-emergence action against ABUTH (herbicidal activity),ABUTH [1]; [20],100%
same,Pre-emergence action against ABUTH (herbicidal activity in percent),"ABUTH [1]; dosage 20 g/ha, scored visually after 3 weeks vs untreated controls, 100% = plants have died, 0% = like control plants",100%
same,Pre-emergence action against ALOMY,ALOMY [2]; [21],80%
same,Pre-emergence action against ALOMY (herbicidal activity),"ALOMY [2]; 80 g/ha, pre-emergence, scored visually after 3 weeks vs untreated controls (100% = plants have died, 0% = like control plants)",90%
same,Pre-emergence action against AMARE in %,"AMARE [3]; 20 g/ha, scored visually after 3 weeks vs untreated controls, 100% = plants have died, 0% = like control plants",100%
same,Pre-emergence action against AMARE in %,AMARE [3]; [20],100%
same,Pre-emergence action against AVEFA,AVEFA; [21],80%
same,Pre-emergence action against AVEFA in %,"AVEFA; 80 g/ha, pre-emergence",90%
same,Pre-emergence action against ECHCG in %,ECHCG [4],100%
same,Pre-emergence action against MATIN in %,MATIN [5]; dosage 20 g/ha,100%
same,Pre-emergence action against MATIN in %,MATIN [5]; dosage 80 g/ha,100%
same,Pre-emergence action against PHBPU in %,PHBPU [6],90%
same,Pre-emergence action against POLCO in %,POLCO; dosage 20 g/ha,80%
same,Pre-emergence action against POLCO in %,POLCO; dosage 80 g/ha,90%
same,Pre-emergence action against SETVI in %,SETVI [7]; dosage 80 g/ha,100%
same,Pre-emergence action against VERPE in %,VERPE [8]; dosage 20 g/ha,90%
same,Pre-emergence action against VERPE in %,VERPE [8]; dosage 80 g/ha,90%
same,Pre-emergence action against VIOTR in %,VIOTR [9]; dosage 20 g/ha,90%
same,Pre-emergence action against VIOTR in %,VIOTR [9]; dosage 80 g/ha,90%
same,Post-emergence action against ABUTH in %,ABUTH [10]; dosage 20 g/ha,80%
same,Post-emergence action against ALOMY in %,ALOMY [11],80%
same,Post-emergence action at 20 g/ha against AMARE in %,AMARE [12],100%
same,Post-emergence action against ECHCG in %,ECHCG [17]; dosage 5 g/ha,80%
same,Post-emergence action against ECHCG in %,ECHCG [17]; dosage 20 g/ha,90%
same,Post-emergence action against MATIN in %,MATIN [13],80%
same,Post-emergence action against PHBPU in %,PHBPU [18]; dosage 5 g/ha,80%
same,Post-emergence action against PHBPU in %,PHBPU [18]; dosage 20 g/ha,90%
same,Post-emergence action against SETVI in %,SETVI [14]; dosage 20 g/ha,90%
same,Post-emergence action against VERPE in %,VERPE [15]; 20 g/ha,80%
same,Post-emergence action against VIOTR in %,VIOTR [16]; 20 g/ha,80%
